Patent US12611406B2, “Oxopiperazine derivatives for the treatment of cancer” (Inthera Bioscience AG, priority 2020, dated 2026)
Like-named read-outs stand apart in the source and are kept apart here.

How the values were obtained:
DU-145 = test: γH2A.X Western blot (DNA damage biomarker); assay type: cell-based; conditions: 20 or 200 nM, 24 h
Description: (§1) Cell cycle phase distribution in control (C) cells or cells treated at 20 or 200 nM Compound 1 for 24 hours (24 h) determined by fluorescence activated cell sorting (FACS) analysis, and detection of histone H2A variant H2A.X phosphorylation (γH2A.X, also referred to herein as gamma H2A.X or γH2A.X) by Western blot as DNA damage biomarker.
(§2) The observed accumulation of DNA damage upon tumor cell exposure to Compound 1, measured as an increase of the DNA damage biomarker γH2A.X (FIG. 3A), is in line with reports of p300/CBP being involved in DNA replication and DNA damage repair (DDR). […] Among these DDR proteins are ATR (ataxia telangiectasia and Rad3-related), which controls crucial cell cycle and repair checkpoints, but also nibrin (NBS1), and poly(ADP-ribose) polymerase 1 (PARP-1).
(§3) In FIG. 3A, protein amounts were normalized using total protein load with ImageLab 6.0 Software (BioRad).

NCI-H69 = test: γH2A.X Western blot (DNA damage biomarker); assay type: cell-based; conditions: 20 or 200 nM, 24 h
Description: as §1, §2, §3

NCI-H82 = test: γH2A.X Western blot (DNA damage biomarker); assay type: cell-based; conditions: 20 or 200 nM, 24 h
Description: as §1, §2, §3

SNU-5 = SNU-5 gastric cancer CDX mouse model; assay type: in vivo; conditions: for Tumor growth inhibition: p <0.001
Description: Left panel: Tumor growth curves. Right panel: Body weight development. […] QD: once daily treatment; po: per os.
Left panel: Tumor growth curves. Right panel: Body weight development. […] QW: once weekly treatment. p.o.: per oral.
Compound 1 (3 mg/kg) was administered orally to the gastric cancer CDX model of SNU-5 cells (FIG. 8C), which harbor a loss-of-function of p53 and mutations in the CDKN2A gene loci, the latter controlling the Rb and p53 pathways.
Values larger than 100% indicate tumor regression.

[1] = 14-day daily oral repeated-dose exploratory study in CD-1 mice (mesylate salt); assay type: in vivo; conditions: for AUC(0-t) / Cmax: CD-1, mouse, in vivo, po
Description: This study explored the TK profile of Compound 1 after 14 days once daily oral dosing in male and female CD-1 mice.
Compound 1 (mesylate salt) was administered once daily for 14 consecutive days by oral gavage to groups of CD-1 mice (n=8/sex/group) at dose levels of 0 (control), 1, 5, 10 or 15 mg/kg/day. A suspension of 0.5% Methylcellulose (w/v) and 0.1% Polysorbate 80 (Tween 80) (v/v) was used as vehicle. For TK investigations sparse blood sampling was performed on treatment Days 1 and 14; three blood samples per animal and day were collected either pre-dose, 2 and 8 hours after administration (4 male and female animals per group) or 1, 4, and 24 hours (remaining 4 male and 4 female animals per group) after administration.

[2] = 5-day daily oral repeated-dose pilot study in Beagle dogs (mesylate salt); assay type: in vivo; conditions: for Tmax / Cmax / half-life: both sexes, Beagle, dog, plasma, po
Description: The objective of the study was to determine the TK profile of Compound 1, following its daily administration through oral gavage for 5 consecutive days to Beagle dogs. Compound 1 (mesylate salt) was administered daily to groups of dogs (n=2/sex/group) by oral gavage (PO) for 5 consecutive days at doses of 1.5 and 2 mg/kg/day. The vehicle was 0.5% (w/v) methylcellulose in sterile water. For TK evaluation blood samples were collected from each dog on Days 1 and 5 at the following timepoints relative to dosing: pre-dose, 15 min, 30 min, as well as 1, 2, 4, 6, 8, 12, and 24 hours post-dose.

Question: Which “DNA damage marker γH2A.X” value (DU-145) does the source give for `CC(C)C[C@@H]1NCCN([C@@H](CC(C)C)C(=O)N2CCC3(C[C@@H]2C)OCC(CN2CCCC2)CO3)C1=O` (stereo partly drawn) [Compound 1, (S)-3-isobutyl-1-((S)-4-methyl-1-((S)-8-methyl-3-(pyrrolidin-1-ylmethyl)-1,5-dioxa-9-azaspiro[5.5]undecan-9-yl)-1-oxopentan-2-yl)piperazin-2-one] here?
Answer: accumulation of the DNA damage marker γH2A.X

Question: What about the “DNA damage marker γH2A.X” value (NCI-H69) of the same compound?
Answer: accumulation of the DNA damage marker γH2A.X

Question: And the “DNA damage marker γH2A.X” value (NCI-H82)?
Answer: accumulation of the DNA damage marker γH2A.X

Question: What about the “anti-tumor efficacy, every other week vs daily” value (SNU-5; 3 mg/kg oral) of the same compound?
Answer: comparable anti-tumor efficacies

Question: What about the tumor growth (SNU-5; 30 mg/kg once every seven days for 7 weeks) of the same compound?
Answer: almost complete inhibition of tumor growth

Question: And the Tumor growth inhibition (SNU-5; once weekly 15 mg/kg/day, 7 weeks)?
Answer: 62% (<0.001)/

Question: What about the Tumor growth inhibition (SNU-5; once weekly 30 mg/kg/day, 7 weeks) of the same compound?
Answer: 91% (<0.001)/

Question: What about the Tumor growth inhibition (SNU-5; once weekly 60 mg/kg/day as 30 mg/kg BID, 5 weeks) of the same compound?
Answer: 98% (<0.001)/**5 weeks

Question: What about the tolerability ([1]; 1, 5, 10, and 15 mg/kg/day orally once daily for 14 consecutive days) of the same compound?
Answer: well-tolerated

Question: What about the AUC(0-t) ([1]; female, 1 mg/kg, F, Day 1) of the same compound?
Answer: 33.1 ng·h/mL

Question: What about the Cmax ([1]; female, 1 mg/kg, F, Day 1) of the same compound?
Answer: 6.4 ng/mL

Question: And the AUC(0-t) ([1]; female, 1 mg/kg, F, Day 14)?
Answer: 112 ng·h/mL

Question: And the Cmax ([1]; female, 1 mg/kg, F, Day 14)?
Answer: 16.6 ng/mL

Question: And the AUC(0-t) ([1]; female, 5 mg/kg, F, Day 1)?
Answer: 258 ng·h/mL

Question: What about the Cmax ([1]; female, 5 mg/kg, F, Day 1) of the same compound?
Answer: 67.6 ng/mL

Question: And the AUC(0-t) ([1]; female, 5 mg/kg, F, Day 14)?
Answer: 478 ng·h/mL

Question: What about the Cmax ([1]; female, 5 mg/kg, F, Day 14) of the same compound?
Answer: 115 ng/mL

Question: What about the AUC(0-t) ([1]; female, 10 mg/kg, F, Day 1) of the same compound?
Answer: 304 ng·h/mL

Question: And the Cmax ([1]; female, 10 mg/kg, F, Day 1)?
Answer: 60.5 ng/mL

Question: What about the AUC(0-t) ([1]; female, 10 mg/kg, F, Day 14) of the same compound?
Answer: 690 ng·h/mL

Question: What about the Cmax ([1]; female, 10 mg/kg, F, Day 14) of the same compound?
Answer: 97.7 ng/mL

Question: What about the AUC(0-t) ([1]; female, 15 mg/kg, F, Day 1) of the same compound?
Answer: 711 ng·h/mL

Question: And the Cmax ([1]; female, 15 mg/kg, F, Day 1)?
Answer: 140 ng/mL

Question: And the AUC(0-t) ([1]; female, 15 mg/kg, F, Day 14)?
Answer: 1090 ng·h/mL

Question: And the Cmax ([1]; female, 15 mg/kg, F, Day 14)?
Answer: 151 ng/mL

Question: And the AUC(0-t) ([1]; male, 1 mg/kg, M, Day 1)?
Answer: 55.4 ng·h/mL

Question: What about the Cmax ([1]; male, 1 mg/kg, M, Day 1) of the same compound?
Answer: 10.9 ng/mL

Question: What about the AUC(0-t) ([1]; male, 1 mg/kg, M, Day 14) of the same compound?
Answer: 108 ng·h/mL

Question: What about the Cmax ([1]; male, 1 mg/kg, M, Day 14) of the same compound?
Answer: 16.3 ng/mL

Question: What about the AUC(0-t) ([1]; male, 5 mg/kg, M, Day 1) of the same compound?
Answer: 225 ng·h/mL

Question: What about the Cmax ([1]; male, 5 mg/kg, M, Day 1) of the same compound?
Answer: 42.9 ng/mL

Question: And the AUC(0-t) ([1]; male, 5 mg/kg, M, Day 14)?
Answer: 607 ng·h/mL

Question: And the Cmax ([1]; male, 5 mg/kg, M, Day 14)?
Answer: 90 ng/mL

Question: And the AUC(0-t) ([1]; male, 10 mg/kg, M, Day 1)?
Answer: 361 ng·h/mL

Question: What about the Cmax ([1]; male, 10 mg/kg, M, Day 1) of the same compound?
Answer: 64.8 ng/mL

Question: And the AUC(0-t) ([1]; male, 10 mg/kg, M, Day 14)?
Answer: 782 ng·h/mL

Question: And the Cmax ([1]; male, 10 mg/kg, M, Day 14)?
Answer: 105 ng/mL

Question: What about the AUC(0-t) ([1]; male, 15 mg/kg, M, Day 1) of the same compound?
Answer: 689 ng·h/mL

Question: And the Cmax ([1]; male, 15 mg/kg, M, Day 1)?
Answer: 133 ng/mL

Question: What about the AUC(0-t) ([1]; male, 15 mg/kg, M, Day 14) of the same compound?
Answer: 717 ng·h/mL

Question: And the Cmax ([1]; male, 15 mg/kg, M, Day 14)?
Answer: 102 ng/mL

Question: And the “Total AUC (AUC(0-inf))” value ([2]; 1.5 mg/kg, Day 1)?
Answer: 116 ng·h/mL

Question: What about the “Total AUC (AUC(0-inf))” value ([2]; 1.5 mg/kg, Day 5) of the same compound?
Answer: 213 ng·h/mL

Question: What about the “Total AUC” value ([2]; 2 mg/kg, Day 1) of the same compound?
Answer: 173 ng·h/mL

Question: What about the “Total AUC” value ([2]; 2 mg/kg, Day 5) of the same compound?
Answer: 270 ng·h/mL

Question: And the Tmax ([2]; 1.5 mg/kg)?
Answer: ~0.5 h

Question: And the Cmax ([2]; 1.5 mg/kg, Day 1)?
Answer: 25.4 ng/mL

Question: What about the half-life ([2]; 1.5 mg/kg, Day 1, read-out: elimination half-life (converted)) of the same compound?
Answer: 4.5 h

Question: And the Cmax ([2]; 1.5 mg/kg, Day 5)?
Answer: 44.6 ng/mL

Question: And the half-life ([2]; 1.5 mg/kg, Day 5, read-out: elimination half-life (converted))?
Answer: 6.2 h

Question: And the Cmax ([2]; 2 mg/kg, Day 1)?
Answer: 33.6 ng/mL

Question: What about the Tmax ([2]; 2 mg/kg, Day 1) of the same compound?
Answer: ~0.4 h

Question: And the half-life ([2]; 2 mg/kg, Day 1, read-out: T1/2 (converted))?
Answer: 4.7 h

Question: What about the Cmax ([2]; 2 mg/kg, Day 5) of the same compound?
Answer: 32.3 ng/mL

Question: What about the Tmax ([2]; 2 mg/kg, Day 5) of the same compound?
Answer: ~2.1 h

Question: And the half-life ([2]; 2 mg/kg, Day 5, read-out: T1/2 (converted))?
Answer: 8.6 h

Question: What about the tolerability ([2]; daily oral for 5 consecutive days at 1.5 mg/kg/day) of the same compound?
Answer: well-tolerated
